Article PMC5494507, “γ‐Secretase inhibitors in cancer clinical trials are pharmacologically and functionally distinct” (EMBO Molecular Medicine, 2017)
Entries after “also recorded” stand apart in the source; their conditions may differ. Read-outs that look alike come from different tables or passages of the source. One block for each compound: values may come before it.

How the values were obtained:
rC100sub and rNOTCH1sub = assay: Cell-free γ-secretase assay, rC100sub and rNOTCH1sub (Appendix Fig S1); format: biochemical
Procedure: Although not suited for detailed dose–response studies due to challenges in precise quantification of the cleavage products, we nevertheless conducted several studies to examine how different GSIs affect cleavage in the cell‐free assay. […] We also evaluated a previously reported Notch‐sparing GSI, Avagacestat (BMS‐708163) (Gillman et al, 2010; Albright et al, 2013) using this assay (Appendix Fig S1).
CHAPSO‐solubilized CHO cell membrane was prepared as described in previous report. 25 μg/ml of each substrate was incubated with the membrane (100 μg/ml total protein) in sodium citrate buffer (150 mM, pH 6.5, Roche Complete protease inhibitor added) for 2 h at 37°C. […] The reaction was terminated by placing tubes on ice until immunoprecipitation.
(§1) Immunoprecipitation and mass spectrometry of Aβ and Aβ‐like peptides in cell‐free assay or conditioned media were performed as previously described (Ran et al, 2014). Briefly, the peptides were immunoprecipitated using anti‐Aβ Ab5 antibody bound to sheep anti‐mouse IgG magnetic Dynabeads (Life Technologies) and eluted with 0.1% trifluoroacetic acid (TFA) in water. COOH‐terminal fragments (CTFs) were immunoprecipitated with anti‐FLAG M2 magnetic beads (Sigma). […] Samples were analyzed using a Bruker Microflex LRF‐MALDI‐TOF mass spectrometer.

[1] = test system: cNOTCH1‐4sub and cAPPC100sub; assay: Substrate accumulation in H4 cells stably expressing cNOTCH1-4sub and cAPPC100sub (Western blot); format: cell-based, human; settings: for substrate accumulation (Western blot), other GSIs tried beside DAPT: authors' response, concentration not given
Procedure: In order to enable us to more definitively characterize the effects of various GSIs on different substrates, we generated H4 cells stably expressing cNOTCH1‐4sub and cAPPC100sub (Fig 4A). Chimeric substrates were detected by WB using anti‐FLAG antibody (Fig 4B). Multiple CTFs are detectable as well as potential dimers for all substrates. Multiple NTF are also detectable using anti‐Aβ 6E10 antibody (Appendix Fig S2) for cNOTCH1, 3, and 4 substrates.
(§2) H4 cells were cultured in Opti‐mem media (Thermo‐Fisher) supplemented with Hyclone 6% fetal bovine serum (GE, Logan, Utah, USA) and 1% penicillin/streptomycin (Life Technologies, Grand Island, NY, USA). pCDNA3.1 plasmids containing the substrate cDNAs were transfected into H4 cells using FuGENE HD reagent (Madison, WI, USA). Stable cell lines were established using G418 selection. […] Cells and conditioned media were used for WB, IP, and ELISA.
Sandwich ELISAs used for Aβ detection were performed as previously described (Murphy et al, 1999; Ran et al, 2014). Briefly, Aβ and Aβ‐like peptides in conditioned media were captured with Ab5 antibody and detected with horseradish peroxidase labeled mAb 4G8 (Biolegend). Synthetic Aβ1‐40 was used as standard. All ELISAs were developed with TMB substrate (KPL, Gaithersburg, Maryland, USA). Bis‐Tris precast gels (Biorad, Hercules, CA, USA) were used for all SDS–PAGE. Monoclonal anti‐FLAG M2 antibody (Sigma) and Aβ1‐16 antibody 6E10 (Covance) were used for Western blotting at 1:1,000 dilution. Anti‐CD74 In‐1 antibody (BD Bioscience, San Jose, CA, USA) was used for A20 cell lysate Western blotting at dilution of 1:1,000. MDA‐MB‐231 cell extracts were prepared by lysing cells in RIPA buffer containing protease and phosphatase inhibitors. The lysates were kept on ice for 30 min and vortexed every 10 min, and then centrifuged at 4°C for 10 min at 1,000 g. The supernatants were collected, and protein concentrations were determined by Bradford Assay. […]

cNOTCH3sub = assay: Cell-based γ-secretase cleavage assay, cNOTCH3sub in H4 cells (Aβ-like peptide ELISA); design: species or system human
Procedure: (§3) Using these cell‐based γ‐secretase cleavage assays, we systematically investigated the substrate inhibition profile of BMS‐906024, MK‐0752, PF‐308414, RO4929097, Semagacestat, and DAPT. We treated H4 cells stably expressing cNOTCH1‐4sub with 4 pM to 10 μM of GSIs (Fig 5A and Table 2) and measured the Aβ‐like peptide secreted into the media.
(§4) For the cell‐based assay, all substrates contain a human NOTCH4 signal peptide sequence ([…]), amyloid β peptide (Aβ1–25/K16A) epitope tag followed by the juxtamembrane region (JMD) of the given substrate and a FLAG tag ([…]) at the COOH‐terminal. K16A mutant was created to decrease potential α‐secretase cleavage. The cDNAs were generated by gene synthesis conducted by Genscript. A schematic representation of the substrates is provided in Fig 4A, and sequences of the cDNAs and the proteins are provided in Appendix Fig S6. For clarity, these substrates are referred to as cell‐based assay substrates (e.g., NOTCH1 is cNOTCH1sub). Substrate cDNAs were cloned into pCDNA3.1 (Invitrogen, Carlsbad, CA, USA) for expression in H4 cells (ATCC, Manassas, VA).
as §2
(§5) Sandwich ELISAs used for Aβ detection were performed as previously described (Murphy et al, 1999; Ran et al, 2014). Briefly, Aβ and Aβ‐like peptides in conditioned media were captured with Ab5 antibody and detected with horseradish peroxidase labeled mAb 4G8 (Biolegend). Synthetic Aβ1‐40 was used as standard. All ELISAs were developed with TMB substrate (KPL, Gaithersburg, Maryland, USA). Bis‐Tris precast gels (Biorad, Hercules, CA, USA) were used for all SDS–PAGE. Monoclonal anti‐FLAG M2 antibody (Sigma) and Aβ1‐16 antibody 6E10 (Covance) were used for Western blotting at 1:1,000 dilution. Anti‐CD74 In‐1 antibody (BD Bioscience, San Jose, CA, USA) was used for A20 cell lysate Western blotting at dilution of 1:1,000. MDA‐MB‐231 cell extracts were prepared by lysing cells in RIPA buffer containing protease and phosphatase inhibitors. The lysates were kept on ice for 30 min and vortexed every 10 min, and then centrifuged at 4°C for 10 min at 1,000 g. The supernatants were collected, and protein concentrations were determined by Bradford Assay. Pan‐NOTCH1 antibody (C‐20) (Santa Cruz Biotechnology) and cleaved NOTCH1 (Val1744) antibody ([…]) were used at 1:500 and 1:100 dilution in the test of endogenous NOTCH1 inhibition with β‐actin expression used as loading control. β‐actin antibody was used at 1:1,000 dilution (Sigma). Band intensities normalized for actin using densitometry analysis with ImageJ Software (NIH, USA).

cNOTCH2sub = cNOTCH2sub (Homo sapiens, UniProt P49768); assay: Cell-based γ-secretase cleavage assay, cNOTCH2sub in H4 cells (Aβ-like peptide ELISA); settings: rank among the six GSIs, number in brackets
Procedure: as §3, §4, §2, §5

cNOTCH1‐4sub = assay: Average of cell-based IC50s on cNOTCH1-4sub in H4 cells; design: species or system human; settings: read-out: Average IC50s of each GSI on cNOTCH1‐4sub
Procedure: as §3, §4, §2, §5

full‐length APP = assay: Cell-based γ-secretase cleavage assay, full-length APP stably overexpressing cells (Aβ ELISA)
Procedure: (§6) We next tested all GSIs on cAPPC100sub and full‐length APP stably overexpressing cells. […] The low‐dose potentiation of γ‐secretase cleavage was further mechanistically probed using in vitro assays with recombinant substrates and IP‐MS.
as §2, §5

APP = assay: Endogenous APP-CTF accumulation in MDA-MB-231 cells (Western blot); format: cell-based
Procedure: (§7) To extend the study to a more physiological system, we assessed endogenous NOTCH1 cleavage inhibition using the triple‐negative breast cancer line MDA‐MB‐231 (Fig 6A). Full‐length blots are shown in source data for Fig 6. NOTCH1 cleavage was detected by Western blotting using the Cell Signaling neo‐epitope NICD antibody. […] The inhibition of endogenous APP in MDA‐MB‐231 cells was also tested by detecting accumulation of APP COOH‐terminal fragments (APP‐CTFs). […] Figure 6D summarized the APP‐CTF band intensities normalized for DMSO group. The original blots are available in source data for Fig 6.
Values are mean ± SD of three tests. • APP‐CTF Western blot of MDA‐MB‐231 cells treated with indicated concentration of GSIs for 16 h. • Band intensities of APP‐CTF with 0.1 μM GSIs were normalized for DMSO control group. Values are mean ± SD of three tests. Data information: Original blots are provided as source data. All band intensity data are derived from three independent experiments and are analyzed by one‐way ANOVA using GraphPad Prism6 software. All experiments were repeated three times.Source data are available online for this figure.

NOTCH1 = assay: Endogenous NOTCH1 cleavage inhibition in MDA-MB-231 cells (NICD Western blot after EDTA activation); format: cell-based; settings: MDA-MB-231, 100 nM to 12.5 μM, 1 h pretreatment then 5 mM EDTA 5 min
Procedure: as §7
Short‐term endogenous NOTCH1 cleavage inhibition was tested in the triple‐negative breast cancer cell lines MDA‐MB‐231 (ATCC, Manassas, VA). Cells were plated in 60 mm dishes and maintained as monolayer cultures in DMEM medium supplemented with 10% FBS, 1% penicillin/streptomycin, 1% L‐glutamine (Life Technologies), and incubated at 37°C in a humidified 5% CO2 incubator. After the cells reached ~75% confluency, cultures were pretreated with GSIs for 1 h in DMEM at 37°C in a 5% CO2 incubator. GSIs were tested at concentrations of 0, 0.1, 0.5, 2.5, and 12.5 μM. Then, EDTA (5 mM, Life Technologies) was added to the cell cultures to induce Notch activation for 5 min. Following incubation, cell extracts were prepared by lysing cells in RIPA buffer (Santa Cruz Biotechnology) containing protease and phosphatase inhibitors. Western blotting was performed using Cleaved NOTCH1 (Val1744) antibody (Cell Signaling) with β‐actin (Santa Cruz Biotechnology) as loading control. Band intensities were normalized for actin using ImageJ Software (NIH, USA).
as §5

SPP = test system: SPP; design: method as in Weihofen et al, 2003; settings: concentration up to 100 μM; ref Weihofen et al, 2003; cited from earlier work
cNOTCH4sub = assay: Cell-based γ-secretase cleavage assay, cNOTCH4sub in H4 cells (Aβ-like peptide ELISA); design: species or system human; settings: Aβ-like peptide in media, GSI overnight
Procedure: as §3, §4, §2, §5

Aβ40 = test system: Aβ40; design: method as in ref Appendix Table S1 (Gavai et al, 2015; Dovey et al, 2001; Cook et al, 2010; Krop et al, 2012; Wei et al, 2010; Luistro et al, 2009; Mitani et al, 2012); settings: ref Appendix Table S1 (Gavai et al, 2015; Dovey et al, 2001; Cook et al, 2010; Krop et al, 2012; Wei et al, 2010; Luistro et al, 2009; Mitani et al, 2012); read-out: Reported IC50s Aβ40; cited from earlier work
cAPPC100sub = assay: Cell-based γ-secretase cleavage assay, cAPPC100sub stably overexpressing cells (Aβ ELISA)
Source text: as §6, §4, §2, §5

cNOTCH1sub = assay: Cell-based γ-secretase cleavage assay, cNOTCH1sub in H4 cells (Aβ-like peptide ELISA); design: species or system human; settings: Aβ-like peptide in media, GSI overnight
Procedure: as §3, §4, §2, §5

γ‐secretase = γ‐secretase (Homo sapiens, UniProt P49768); settings: quoted in parentheses in the authors' response, no assay and reference not given; cited from earlier work
[2] = test system: cNOTCH1‐4sub and cAPPC100sub; assay: Secretion of Aβ-like peptides from cNOTCH1-4sub and cAPPC100sub H4 cells (ELISA, IP-MS); format: cell-based, human
Procedure: The secreted Aβ‐like peptides can be detected using Aβ ELISA method.
as §2
as §1, with “water.” for “water. COOH‐terminal fragments (CTFs) were immunoprecipitated with anti‐FLAG M2 magnetic beads (Sigma).”
Sandwich ELISAs used for Aβ detection were performed as previously described (Murphy et al, 1999; Ran et al, 2014). Briefly, Aβ and Aβ‐like peptides in conditioned media were captured with Ab5 antibody and detected with horseradish peroxidase labeled mAb 4G8 (Biolegend). […] The supernatants were collected, and protein concentrations were determined by Bradford Assay. […]

SMILES: NC(=O)[C@@H](CCC(F)(F)F)N(Cc1ccc(-c2ncon2)cc1F)S(=O)(=O)c1ccc(Cl)cc1 [Avagacestat]
inhibition of APP versus Notch cleavage (rC100sub and rNOTCH1sub): inhibit APP and Notch cleavage equivalently

IC50 (cNOTCH3sub; Aβ-like peptide in media, GSI overnight, read-out: IC50 cNOTCH3sub): 624 nM
IC50 (cNOTCH3sub; value in parentheses, read-out: IC50 cNOTCH3sub, from curves excluding the Aβ level > 120%): 265 nM
rank order of inhibition of cNOTCH2sub (cNOTCH2sub): [6]
IC50 (cNOTCH1‐4sub): 191 nM
IC50 (full‐length APP; full-length APP stably overexpressing cells, Aβ ELISA): 32.7 nM
IC50 (cNOTCH4sub): 51.5 nM
IC50 (cNOTCH1sub): 4.9 nM
SMILES: C[C@H](NC(=O)Cc1cc(F)cc(F)c1)C(=O)N[C@H](C(=O)OC(C)(C)C)c1ccccc1 [DAPT]
substrate accumulation (Western blot) ([1]; 1 μM treatment, H4 cells): did not result in significant substrate accumulation except for cAPPC100sub
effect on cNOTCH3sub cleavage at low concentrations (cNOTCH3sub): potentiate
low-dose potentiation of cleavage, APP (full‐length APP; full-length APP overexpressing cells): low‐dose potentiation of cleavage was observed
APP CTF level / accumulation at 100 nM (APP; MDA-MB-231 (231 cells), 100 nM, triplicate): hard to see; also recorded: did not significantly increase CTF level
concentration from which APP‐CTF process is inhibited (APP; MDA-MB-231, 16 h): ≥ 500 nM
NICD levels (NOTCH1): did not suppress NICD levels to baseline levels at any concentrations
effect on SPP activity (SPP): no effect
IC50 (Aβ40): 20 nM
IC50 (cAPPC100sub; stably overexpressing cells, Aβ ELISA, read-out: IC50 cC100sub): 360 nM
IC50 (cAPPC100sub; value in parentheses, read-out: IC50 cC100sub, from curves excluding the Aβ level > 120%): 212 nM

SMILES: CC(C)C[C@H](NC(=O)[C@H](Cc1ccccc1)C[C@@H](O)[C@H](Cc1ccccc1)NC(=O)OC(C)(C)C)C(=O)N[C@@H](Cc1ccccc1)C(N)=O [L685458]
substrate accumulation (Western blot), other GSIs tried beside DAPT [1]: only cAPPC100 show some accumulation
IC50 (γ‐secretase): 17 nM

SMILES: C[C@H](NC(=O)[C@@H](O)c1cc(F)cc(F)c1)C(=O)N[C@@H]1C(=O)N(C)c2ccccc2-c2ccccc21 [LY411575, N2‐[(2S)‐2‐(3,5‐difluorophenyl)‐2‐hydroxyethanoyl]‐N1‐[(7S)‐5‐methyl‐6‐oxo ‐6,7‐dihydro‐5H‐dibenzo[b,d]azepin‐7‐yl]‐L‐alaninamide]
substrate accumulation (Western blot), other GSIs tried beside DAPT [1]: only cAPPC100 show some accumulation
Aβ-like peptides in culture media (IP-MS) ([2]; 1 μM): abolished all production
secretion of Aβ-like peptides (ELISA) ([2]; 1 μM applied to cell cultures): almost completely inhibited
